Assay results taken from patent EP2289882A1, “3-oxopiperazinium derivatives as agonists of nerve growth factor and their use as medicaments” (Institut d'Investigacions Biomédiques August PI I Sunyer, priority 2009, dated 2011).

Legend:
PC12 cells = test: PC12 cell differentiation (neurite outgrowth); type: cell-based; settings: 3 days, 2 ng/ml to 50 µg/ml, reduced serum (0.5% FBS and 1% HS); compared with NGF 100 ng/ml
Experimental: PC 12 cell differentiation was measured by plating cells onto collagen-coated 24-wells plates. NGF (100 ng/ml) or the small chemicals at different concentrations were added and the percentage of cells with neurite processes greater than two cell bodies in length were counted after relevant treatment. For each experiment at least 300 cells were randomly measured (Burstein and Greene, 1978). Cell culture. PC12 cells were maintained at 37°C in DMEM supplemented with 2.5% FBS, 15% of Horse serum (HS) and penicillin/streptomycin in a humidified 5% CO2 incubator. The cells were grown on 60-and 100-mm tissue culture dishes (Becton Dickinson). PC 12 cells were cultured for 3 days in the presence of the peptoids (from 2 ng/ml to 50 µg/ml) under reduced serum conditions (0.5% FBS and 1% HS).

RN22 cells = test: RN22 cell survival assay under CuSO4 stress (MTT); type: cell-based, rat; settings: CuSO4 150 µM stress, 1 ng/ml - 10 µg/ml, 24 h; RN22 expresses p75 but not TrkA
Experimental: Compounds identified from the initial library screening were also tested to assess their capacity to promote cell survival. To delineate p75 signalling independent of TrkA, we used a rat schwannoma cell line (RN22) expressing p75, but not TrkA, (Gentry et al., 2000). Cell culture. The rat schawnnoma cell line RN22 was cultured in 5% CO2 at 37°C in Dulbecco's modified Eagle's medium (DMEM) with 10% fetal bovine serum (FBS) and penicillin/streptomycin. RN22 cells were plated at 20,000 cells/well on a 24-well plate in DMEM alone and after allowing the cells to adhere for 3 days, cupper sulphate (CuSO4) (150 µM) was added with or without NGF (100 ng/ml) or the peptidomimetic molecules A26-23, A26-24 and A28-A6 at different concentrations (1 ng/ml - 10 µg/ml) to generate stress and cell death. After 24 h cell viability was studied by determining the amount of yellow MTT (Sigma) that was reduced to insoluble purple formazan. After removing the medium, the water-insoluble formazan was solubilised with DMSO (Sigma), and the dissolved material was measured spectrophotometrically at a wavelength of 570 nm, subtracting the background at 650 nm (Frade, 2005).

8-[2-(2-(5-methyl-1H-indol-2-yl)ethylamino)-2-oxoethyl]-7-oxo-8-aza-5-azoniaspiro[4.5]decane [A28-A6]
differentiation of PC12 cells (percentage of cells with neurite processes greater than two cell bodies in length) (PC12 cells): induce the differentiation of PC12 cells at different concentrations to an extent substantially comparable with that induce by NGF | survival of RN22 cells (cell viability, MTT) (RN22 cells): not to promote survival of RN22 cells

C[N+]1(C)CCN(CC(=O)NCCc2ccc([N+](=O)[O-])cc2)C(=O)C1.[Cl-] [A26-23, 1,1-dimethyl-4-[2-(4-nitrophenethylamino) -2-oxoethyl] -3-oxopiperazinium chloride]
differentiation of PC12 cells (percentage of cells with neurite processes greater than two cell bodies in length) (PC12 cells): induce the differentiation of PC12 cells at different concentrations to an extent substantially comparable with that induce by NGF | survival of RN22 cells (cell viability, MTT) (RN22 cells): not to promote survival of RN22 cells

C[N+]1(Cc2ccccc2)CCN(CC(=O)NCCc2ccc([N+](=O)[O-])cc2)C(=O)C1.[Cl-] (stereo not drawn) [A26-64, 1-benzyl-1-methyl-4-[2-(4-nitrophenethylamino)-2-oxoethyl]-3-oxopiperazinium chloride]
differentiation of PC12 cells (percentage of cells with neurite processes greater than two cell bodies in length) (PC12 cells): induce the differentiation of PC12 cells at different concentrations to an extent substantially comparable with that induce by NGF | survival of RN22 cells (cell viability, MTT) (RN22 cells): not to promote survival of RN22 cells
